Legend:
[1] = molecular target: T1, SYK kinase (Homo sapiens, UniProt P43405); test: SYK Assay (OMNIA KINASE ASSAY, SOX peptide fluorescence); assay type: biochemical; conditions: apparent Ki calculated from the IC50 using the Cheng-Prusoff equation; 1 mM ATP, 30° C.; read-out: SYK Activities: Ki
T1 construct: purchased Invitrogen, Carlsbad
Method in brief: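 Apparent Ki values are derived by Cheng-Prusoff from IC50s of sigmoidal fits of reaction rate against compound concentration. Rates come from chelation-enhanced SOX fluorescence (λex 360/λem 485 nm, read every 30 s over 30 min) as the kinase phosphorylates 10 µM Omnia Tyr 7 peptide at 30 °C, with 1 mM ATP and 0.2 mM DTT.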

[2] = molecular target: MYLK (Homo sapiens, UniProt Q15746); test: MYLK Assay (LanthaScreen Eu Kinase Binding Assay); conditions: 5 nM MYLK, 30 nM tracer 236, RT 1 h; read-out: MYLK Activities: IC50
Description: In the assay LanthaScreen™ Eu Kinase Binding Assay by Invitrogen Corporation (Carlsbad) the effect of invention of a compound on the phosphorylation is determined by measurement of fluorescence intensity emission ratio based on the binding and displacement of a proprietary, Alexa Fluor® 647-labeled, ATP-competitive kinase inhibitor scaffold (kinase tracer) to the kinase of interest as described above.
To the wells of an 384 well small volume plate (Greiner, Frickenhausen) are added (i) the compound under test in 5% is DMSO/distilled water (5 μl), (ii) 5 μl of the kinase antibody mixture resulting in a final concentration 5 nM MYLK, 2 nM EU-Anti-GST antibody in 1× kinase buffer A. The reaction was started with addition of (iii) 5 μl resulting in a final concentration of 30 nM tracer 236. The assay plate was incubated at RT for 1 h and fluorescence intensity readings were collected using a TECAN M1000 at two wavelengths of λex 340/λem 615 nm and λex 340/λem 665 nm with a delay time of 100 μs and an integration time of 200 μs after 60 minutes. The emission ratio was calculated by division of the acceptor/tracer emission ([…]) by the antibody/donor emission ([…]). The inhibitor concentration was plotted versus the emission ratio to determine the IC50 using XLFit 5.0 (IDBS, Guildford) to fit to a sigmoidal dose response curve with a variable slope.

[3] = molecular target: LRRK2 (Homo sapiens, UniProt Q5S007); test: LRRK2-LRRK2 G2019S-Assay (LanthaScreen Eu Kinase Binding Assay); conditions: 5 nM LRRK2 or their mutants, 10 nM tracer 236, RT 1 h; read-out: LRRK2 Activities: IC50
Method in brief: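 Kinase (wild type or mutant, 5 nM) mixed with Eu-anti-GST antibody (2 nM), then 10 nM Alexa Fluor 647 tracer 236 added. After 1 h at room temperature, the acceptor/donor (665/615 nm) FRET ratio was measured. IC50 was fitted from concentration–ratio curves.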

Chain of LRRK2 (Q5S007 970-2527 limits assumed): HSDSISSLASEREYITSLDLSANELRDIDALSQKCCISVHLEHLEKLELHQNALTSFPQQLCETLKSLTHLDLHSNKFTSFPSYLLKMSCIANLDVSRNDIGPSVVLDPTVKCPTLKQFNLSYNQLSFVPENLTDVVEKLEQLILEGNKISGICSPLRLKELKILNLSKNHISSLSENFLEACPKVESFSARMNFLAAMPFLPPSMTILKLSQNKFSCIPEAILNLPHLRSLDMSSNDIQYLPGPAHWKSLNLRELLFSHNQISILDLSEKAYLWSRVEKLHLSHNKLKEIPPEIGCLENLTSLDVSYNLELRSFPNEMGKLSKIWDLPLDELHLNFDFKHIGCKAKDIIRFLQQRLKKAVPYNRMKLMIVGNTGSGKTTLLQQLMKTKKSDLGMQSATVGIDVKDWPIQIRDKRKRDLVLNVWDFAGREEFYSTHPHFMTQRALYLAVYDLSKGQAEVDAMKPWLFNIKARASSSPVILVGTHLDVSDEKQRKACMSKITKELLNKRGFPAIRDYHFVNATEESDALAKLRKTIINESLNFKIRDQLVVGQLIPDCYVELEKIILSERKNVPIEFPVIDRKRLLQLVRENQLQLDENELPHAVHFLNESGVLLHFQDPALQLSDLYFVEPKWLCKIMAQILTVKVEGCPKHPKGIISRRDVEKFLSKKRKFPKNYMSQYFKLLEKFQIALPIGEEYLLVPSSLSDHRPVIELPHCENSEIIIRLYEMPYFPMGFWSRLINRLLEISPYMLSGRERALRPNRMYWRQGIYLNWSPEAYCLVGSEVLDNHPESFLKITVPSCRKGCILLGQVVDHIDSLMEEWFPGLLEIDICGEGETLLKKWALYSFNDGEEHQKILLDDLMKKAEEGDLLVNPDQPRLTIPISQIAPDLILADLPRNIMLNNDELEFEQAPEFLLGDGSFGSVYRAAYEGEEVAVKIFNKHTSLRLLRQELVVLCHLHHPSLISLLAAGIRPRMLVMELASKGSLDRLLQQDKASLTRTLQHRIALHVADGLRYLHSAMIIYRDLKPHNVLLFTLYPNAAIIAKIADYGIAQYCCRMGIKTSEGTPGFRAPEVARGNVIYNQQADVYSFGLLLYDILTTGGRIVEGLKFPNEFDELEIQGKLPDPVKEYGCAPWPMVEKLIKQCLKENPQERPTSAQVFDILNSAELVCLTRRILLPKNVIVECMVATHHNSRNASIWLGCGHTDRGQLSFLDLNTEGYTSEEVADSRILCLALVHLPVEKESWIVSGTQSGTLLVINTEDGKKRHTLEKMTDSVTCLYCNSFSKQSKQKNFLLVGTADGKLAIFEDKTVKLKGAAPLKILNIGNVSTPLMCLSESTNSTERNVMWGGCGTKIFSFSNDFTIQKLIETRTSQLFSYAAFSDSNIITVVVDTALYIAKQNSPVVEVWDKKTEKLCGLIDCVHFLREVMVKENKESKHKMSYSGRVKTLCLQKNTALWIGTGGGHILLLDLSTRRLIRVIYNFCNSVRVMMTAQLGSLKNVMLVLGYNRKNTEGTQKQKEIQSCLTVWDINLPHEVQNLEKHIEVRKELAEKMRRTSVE
Chain of MYLK (Q15746 whole entry): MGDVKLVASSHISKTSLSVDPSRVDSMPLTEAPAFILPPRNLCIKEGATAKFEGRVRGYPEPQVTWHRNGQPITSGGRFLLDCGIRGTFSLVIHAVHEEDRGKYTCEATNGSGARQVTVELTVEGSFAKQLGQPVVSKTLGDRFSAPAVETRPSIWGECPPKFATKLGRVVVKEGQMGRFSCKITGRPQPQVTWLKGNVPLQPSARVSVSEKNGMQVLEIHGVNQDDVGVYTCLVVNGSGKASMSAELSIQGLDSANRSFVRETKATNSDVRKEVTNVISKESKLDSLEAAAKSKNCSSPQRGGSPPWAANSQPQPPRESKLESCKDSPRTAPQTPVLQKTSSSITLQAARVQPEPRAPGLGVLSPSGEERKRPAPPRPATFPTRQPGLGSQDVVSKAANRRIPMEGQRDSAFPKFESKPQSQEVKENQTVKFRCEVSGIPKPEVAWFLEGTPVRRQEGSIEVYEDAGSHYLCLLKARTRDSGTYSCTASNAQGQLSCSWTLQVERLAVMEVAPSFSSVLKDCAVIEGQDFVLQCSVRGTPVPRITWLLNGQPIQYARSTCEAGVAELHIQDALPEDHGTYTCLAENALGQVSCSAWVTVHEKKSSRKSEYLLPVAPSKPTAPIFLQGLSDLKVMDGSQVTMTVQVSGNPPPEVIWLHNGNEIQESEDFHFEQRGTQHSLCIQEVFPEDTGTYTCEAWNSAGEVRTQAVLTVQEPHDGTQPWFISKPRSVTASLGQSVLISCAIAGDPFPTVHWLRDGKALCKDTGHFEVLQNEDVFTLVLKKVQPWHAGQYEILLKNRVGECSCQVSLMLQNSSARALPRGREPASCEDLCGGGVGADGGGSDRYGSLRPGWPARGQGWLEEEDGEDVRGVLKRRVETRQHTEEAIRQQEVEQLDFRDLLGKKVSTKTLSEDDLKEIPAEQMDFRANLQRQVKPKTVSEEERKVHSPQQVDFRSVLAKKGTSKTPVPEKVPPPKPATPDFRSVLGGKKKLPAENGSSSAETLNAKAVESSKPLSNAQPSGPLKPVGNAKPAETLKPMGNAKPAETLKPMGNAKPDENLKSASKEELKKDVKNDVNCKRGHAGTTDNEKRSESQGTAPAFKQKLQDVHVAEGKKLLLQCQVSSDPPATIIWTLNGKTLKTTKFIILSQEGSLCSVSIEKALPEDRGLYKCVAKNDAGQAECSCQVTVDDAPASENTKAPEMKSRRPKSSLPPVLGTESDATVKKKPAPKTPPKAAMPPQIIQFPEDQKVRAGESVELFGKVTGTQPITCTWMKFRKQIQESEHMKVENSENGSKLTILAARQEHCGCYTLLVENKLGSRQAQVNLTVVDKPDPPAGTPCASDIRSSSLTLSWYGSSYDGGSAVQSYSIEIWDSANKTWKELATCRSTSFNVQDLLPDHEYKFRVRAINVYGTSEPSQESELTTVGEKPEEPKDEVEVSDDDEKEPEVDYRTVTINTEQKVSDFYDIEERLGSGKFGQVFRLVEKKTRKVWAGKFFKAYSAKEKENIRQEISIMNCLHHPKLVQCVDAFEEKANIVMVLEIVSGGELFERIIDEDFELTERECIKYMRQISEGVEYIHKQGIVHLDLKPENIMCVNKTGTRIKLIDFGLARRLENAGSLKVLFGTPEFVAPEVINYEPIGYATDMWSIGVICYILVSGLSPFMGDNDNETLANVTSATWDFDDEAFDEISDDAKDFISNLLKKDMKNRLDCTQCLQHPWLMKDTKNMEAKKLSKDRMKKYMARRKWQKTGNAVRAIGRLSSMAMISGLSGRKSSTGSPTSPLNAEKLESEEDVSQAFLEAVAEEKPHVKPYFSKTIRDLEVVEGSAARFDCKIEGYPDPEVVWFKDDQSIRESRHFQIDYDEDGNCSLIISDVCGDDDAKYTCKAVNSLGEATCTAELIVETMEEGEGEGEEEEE

Compound: COc1cccc(-c2nc(Nc3ccc(N4CCN(C)CC4)cc3)c3[nH]ncc3n2)c1 [Example #62, 5-(3-methoxyphenyl)-N-(4-(4-methylpiperazin-1-yl)phenyl)-1H-pyrazolo[4,3-d]pyrimidin-7-amine]
- Ki [1]: < 10 nM
- IC50 [2]: < 5000 nM
- IC50 [3]: 10 to 100 nM

Compound: COc1ccc(Nc2nc(-c3cccs3)nc3cn[nH]c23)cc1OC [Example #68, N-(3,4-dimethoxyphenyl)-5-(thiophen-2-yl)-1H-pyrazolo[4,3-d]pyrimidin-7-amine]
- Ki [1]: < 10 nM
- IC50 [2]: < 5000 nM
- IC50 [3]: 100 to 1000 nM

Compound: CN1CCN(c2ccc(Nc3nc(-c4cccs4)nc4cn[nH]c34)cc2)CC1 [Example #70, N-(4-(4-methylpiperazin-1-yl)phenyl)-5-(thiophen-2-yl)-1H-pyrazolo[4,3-d]pyrimidin-7-amine]
- Ki [1]: < 10 nM
- IC50 [2]: < 5000 nM
- IC50 [3]: 10 to 100 nM

Compound: CN1CCN(c2ccc(Nc3nc(-c4ccsc4)nc4cn[nH]c34)cc2)CC1 [Example #74, N-(4-(4-methylpiperazin-1-yl)phenyl)-5-(thiophen-3-yl)-1H-pyrazolo[4,3-d]pyrimidin-7-amine]
- Ki [1]: < 10 nM
- IC50 [2]: < 5000 nM
- IC50 [3]: 100 to 1000 nM

Compound: Oc1cccc(Nc2nc(-c3cccs3)nc3cn[nH]c23)c1 [Example #83, 3-((5-(thiophen-2-yl)-1H-pyrazolo[4,3-d]pyrimidin-7-yl)amino)phenol]
- Ki [1]: 10 to 100 nM
- IC50 [2]: < 5000 nM
- IC50 [3]: 100 to 1000 nM

Compound: c1csc(-c2nc(Nc3ccc4c(c3)NCCO4)c3[nH]ncc3n2)c1 [Example #91, N-(5-(thiophen-2-yl)-1H-pyrazolo[4,3-d]pyrimidin-7-yl)-3,4-dihydro-2H-benzo[b][1,4]oxazin-6-amine]
- Ki [1]: < 10 nM
- IC50 [2]: < 5000 nM
- IC50 [3]: 10 to 100 nM

Compound: CN1CCN(c2ccc(Nc3nc(-c4nc5ccccc5s4)nc4cn[nH]c34)cc2)CC1 [Example #95, 5-(benzo[d]thiazol-2-yl)-N-(4-(4-methylpiperazin-1-yl)phenyl)-1H-pyrazolo[4,3-d]pyrimidin-7-amine]
- Ki [1]: < 10 nM
- IC50 [2]: < 5000 nM
- IC50 [3]: 10 to 100 nM

Compound: c1ccc2sc(-c3nc(Nc4ccc5c(c4)NCCO5)c4[nH]ncc4n3)nc2c1 [Example #97, N-(5-(benzo[d]thiazol-2-yl)-1H-pyrazolo[4,3-d]pyrimidin-7-yl)-3,4-dihydro-2H-benzo[b][1,4]oxazin-6-amine]
- Ki [1]: 10 to 100 nM
- IC50 [2]: < 5000 nM
- IC50 [3]: 100 to 1000 nM

Compound: CN1CCN(c2ccc(Nc3nc(-c4cccc(-c5cccnc5)c4)nc4cn[nH]c34)cc2)CC1 [Example #99, N-(4-(4-methylpiperazin-1-yl)phenyl)-5-(3-(pyridin-3-yl)phenyl)-1H-pyrazolo[4,3-d]pyrimidin-7-amine]
- Ki [1]: < 10 nM
- IC50 [2]: < 5000 nM
- IC50 [3]: 100 to 1000 nM

Compound: CN(C)c1cccc(Nc2nc(-c3ccsc3)nc3cn[nH]c23)c1 [Example #114, N1,N1-dimethyl-N3-(5-(thiophen-3-yl)-1H-pyrazolo[4,3-d]pyrimidin-7-yl)benzene-1,3-diamine]
- Ki [1]: 10 to 100 nM
- IC50 [2]: < 5000 nM
- IC50 [3]: 100 to 1000 nM

Compound: Nc1cccc(Nc2nc(-c3ccsc3)nc3cn[nH]c23)c1 [Example #117, N1-(5-(thiophen-3-yl)-1H-pyrazolo[4,3-d]pyrimidin-7-yl)benzene-1,3-diamine]
- Ki [1]: < 10 nM
- IC50 [2]: < 5000 nM
- IC50 [3]: 10 to 100 nM

Compound: CN1CCN(c2ccc(Nc3nc(-c4ccsc4)nc4cn[nH]c34)cn2)CC1 [Example #118, N-(6-(4-methylpiperazin-1-yl)pyridin-3-yl)-5-(thiophen-3-yl)-1H-pyrazolo[4,3-d]pyrimidin-7-amine]
- Ki [1]: < 10 nM
- IC50 [2]: < 5000 nM
- IC50 [3]: 10 to 100 nM

Compound: CN(C)Cc1ccc(Nc2nc(-c3ccccc3)nc3cn[nH]c23)cc1 [Example #120, N-(4-((dimethylamino)methyl)phenyl)-5-phenyl-1H-pyrazolo[4,3-d]pyrimidin-7-amine]
- Ki [1]: 10 to 100 nM
- IC50 [2]: < 5000 nM
- IC50 [3]: 100 to 1000 nM

Compound: c1ccn2cc(-c3nc(Nc4ccc5cn[nH]c5c4)c4[nH]ncc4n3)nc2c1 [Example #127, 5-(imidazo[1,2-a]pyridin-2-yl)-N-(1H-indazol-6-yl)-1H-pyrazolo[4,3-d]pyrimidin-7-amine]
- Ki [1]: 10 to 100 nM
- IC50 [2]: < 5000 nM
- IC50 [3]: 100 to 1000 nM

Compound: COc1cccc(-c2nc(Nc3ccc(CN4CCN(C)CC4)cc3)c3[nH]ncc3n2)c1 [Example #131, 5-(3-methoxyphenyl)-N-(4-((4-methylpiperazin-1-yl)methyl)phenyl)-1H-pyrazolo[4,3-d]pyrimidin-7-amine]
- Ki [1]: < 10 nM
- IC50 [2]: < 5000 nM
- IC50 [3]: 100 to 1000 nM

Compound: COc1cccc(-c2nc(Nc3ccc(CN4CCCC4)cc3)c3[nH]ncc3n2)c1 [Example #132, 5-(3-methoxyphenyl)-N-(4-(pyrrolidin-1-ylmethyl)phenyl)-1H-pyrazolo[4,3-d]pyrimidin-7-amine]
- Ki [1]: < 10 nM
- IC50 [2]: < 5000 nM
- IC50 [3]: 100 to 1000 nM

Compound: CN1CCN(C(=O)c2ccc(Nc3nc(-c4cccs4)nc4cn[nH]c34)cc2)CC1 [Example #134, (4-methylpiperazin-1-yl)(4-((5-(thiophen-2-yl)-1H-pyrazolo[4,3-d]pyrimidin-7-yl)amino)phenyl)methanone]
- Ki [1]: < 10 nM
- IC50 [2]: < 5000 nM
- IC50 [3]: 100 to 1000 nM

Compound: CC(=O)N1CCN(c2ccc(Nc3nc(-c4cccs4)nc4cn[nH]c34)cc2)CC1 [Example #138, 1-(4-(4-((5-(thiophen-2-yl)-1H-pyrazolo[4,3-d]pyrimidin-7-yl)amino)phenyl)piperazin-1-yl)ethan-1-one]
- Ki [1]: < 10 nM
- IC50 [2]: < 5000 nM
- IC50 [3]: 100 to 1000 nM

Compound: COc1cc(C(=O)N2CCC(N3CCN(C)CC3)CC2)ccc1Nc1nc(-c2cccs2)nc2cn[nH]c12 [Example #139, (3-methoxy-4-((5-(thiophen-2-yl)-1H-pyrazolo[4,3-d]pyrimidin-7-yl)amino)phenyl)(4-(4-methylpiperazin-1-yl)piperidin-1-yl)methanone]
- Ki [1]: 10 to 100 nM
- IC50 [2]: < 5000 nM
- IC50 [3]: 10 to 100 nM

Compound: O=S1(=O)CCN(c2ccc(Nc3nc(-c4ccsc4)nc4cn[nH]c34)cc2)CC1 [Example #143, 4-(4-((5-(thiophen-3-yl)-1H-pyrazolo[4,3-d]pyrimidin-7-yl)amino)phenyl)thiomorpholine 1,1-dioxide]
- Ki [1]: < 10 nM
- IC50 [2]: < 5000 nM
- IC50 [3]: 10 to 100 nM

Compound: CC(=O)N1CCN(c2ccc(Nc3nc(-c4ccsc4)nc4cn[nH]c34)cc2)CC1 [Example #144, 1-(4-(4-((5-(thiophen-3-yl)-1H-pyrazolo[4,3-d]pyrimidin-7-yl)amino)phenyl)piperazin-1-yl)ethan-1-one]
- Ki [1]: < 10 nM
- IC50 [2]: < 5000 nM
- IC50 [3]: < 10 nM

Compound: CN1CCN(C(=O)c2ccc(Nc3nc(-c4ccsc4)nc4cn[nH]c34)cc2)CC1 [Example #147, (4-methylpiperazin-1-yl)(4-((5-(thiophen-3-yl)-1H-pyrazolo[4,3-d]pyrimidin-7-yl)amino)phenyl)methanone]
- Ki [1]: 10 to 100 nM
- IC50 [2]: < 5000 nM
- IC50 [3]: 10 to 100 nM

Compound: CC(C)(C)N1CCN(c2ccc(Nc3nc(-c4ccsc4)nc4cn[nH]c34)cc2)CC1 [Example #161, N-(4-(4-(tert-butyl)piperazin-1-yl)phenyl)-5-(thiophen-3-yl)-1H-pyrazolo[4,3-d]pyrimidin-7-amine]
- Ki [1]: < 10 nM
- IC50 [2]: < 5000 nM
- IC50 [3]: 10 to 100 nM

Compound: CC(C)(C)N1CCN(c2ccc(Nc3nc(-c4cccs4)nc4cn[nH]c34)cc2)CC1 [Example #163, N-(4-(4-(tert-butyl)piperazin-1-yl)phenyl)-5-(thiophen-2-yl)-1H-pyrazolo[4,3-d]pyrimidin-7-amine]
- Ki [1]: < 10 nM
- IC50 [2]: < 5000 nM
- IC50 [3]: 100 to 1000 nM

Compound: COc1ccc(-c2nc(Nc3ccc(N4CCN(C(C)(C)C)CC4)cc3)c3[nH]ncc3n2)cc1 [Example #172, N-(4-(4-(tert-butyl)piperazin-1-yl)phenyl)-5-(4-methoxyphenyl)-1H-pyrazolo[4,3-d]pyrimidin-7-amine]
- Ki [1]: < 10 nM
- IC50 [2]: < 5000 nM
- IC50 [3]: 100 to 1000 nM

Compound: CN1CCN(c2ccc(Nc3nc(-c4nccs4)nc4cn[nH]c34)cc2)CC1 [Example #179, N-(4-(4-methylpiperazin-1-yl)phenyl)-5-(thiazol-2-yl)-1H-pyrazolo[4,3-d]pyrimidin-7-amine]
- Ki [1]: < 10 nM
- IC50 [2]: < 5000 nM
- IC50 [3]: 100 to 1000 nM

Source: patent publication US9802937B2, “Substituted pyrazolo{4,3-D}pyrimidines as kinase inhibitors” (ORIGENIS GMBH, priority 2011, dated 2017)
